Assay results: article PMC9481151, “Discovery of new symmetrical and asymmetrical nitrile-containing 1,4-dihydropyridine derivatives as dual kinases and P-glycoprotein inhibitors: synthesis, in vitro assays, and in silico studies” (Journal of Enzyme Inhibition and Medicinal Chemistry, 2022)

Tests used:
SF-268 = assay: NCI single dose (10 µM) SRB screen; type: cell-based, human; conditions: CNS cancer, 48 h
SR = assay: NCI single dose (10 µM) SRB screen; type: cell-based, human; conditions: leukaemia, 48 h
A549/ATCC = assay: NCI single dose (10 µM) SRB screen; type: cell-based, human; conditions: non-small cell lung cancer, 48 h
HOP-92 = assay: NCI single dose (10 µM) SRB screen; type: cell-based, human; conditions: non-small cell lung cancer, 48 h
CAKI-1 = assay: NCI single dose (10 µM) SRB screen; type: cell-based, human; conditions: renal cancer, 48 h
DU-145 = assay: NCI single dose (10 µM) SRB screen; type: cell-based, human; conditions: prostate cancer, 48 h
MALME-3M = assay: NCI single dose (10 µM) SRB screen; type: cell-based, human; conditions: melanoma, 48 h
A498 = assay: NCI single dose (10 µM) SRB screen; type: cell-based, human; conditions: renal cancer, 48 h
NCI-H23 = assay: NCI single dose (10 µM) SRB screen; type: cell-based, human; conditions: non-small cell lung cancer, 48 h
KM12 = assay: NCI single dose (10 µM) SRB screen; type: cell-based, human; conditions: colon cancer, 48 h
T-47D = assay: NCI single dose (10 µM) SRB screen; type: cell-based, human; conditions: breast cancer, 48 h
NCI-H522 = assay: NCI single dose (10 µM) SRB screen; type: cell-based, human; conditions: non-small cell lung cancer, 48 h
Bacillus subtilis = assay: Agar well diffusion method
TK-10 = assay: NCI single dose (10 µM) SRB screen; type: cell-based, human; conditions: renal cancer, 48 h
Escherichia coli = assay: Agar well diffusion method
ACHN = assay: NCI single dose (10 µM) SRB screen; type: cell-based, human; conditions: renal cancer, 48 h
HCT-15 = assay: NCI single dose (10 µM) SRB screen; type: cell-based, human; conditions: colon cancer, 48 h
NCI-H460 = assay: NCI single dose (10 µM) SRB screen; type: cell-based, human; conditions: non-small cell lung cancer, 48 h
IGROV1 = assay: NCI single dose (10 µM) SRB screen; type: cell-based, human; conditions: ovarian cancer, 48 h
EKVX = assay: NCI single dose (10 µM) SRB screen; type: cell-based, human; conditions: non-small cell lung cancer, 48 h
PC-3 = assay: NCI single dose (10 µM) SRB screen; type: cell-based, human; conditions: prostate cancer, 48 h
HCT-116 = assay: NCI single dose (10 µM) SRB screen; type: cell-based, human; conditions: colon cancer, 48 h
HCC-2998 = assay: NCI single dose (10 µM) SRB screen; type: cell-based, human; conditions: colon cancer, 48 h
HOP-62 = assay: NCI single dose (10 µM) SRB screen; type: cell-based, human; conditions: non-small cell lung cancer, 48 h
SK-MEL-28 = assay: NCI single dose (10 µM) SRB screen; type: cell-based, human; conditions: melanoma, 48 h
SF-539 = assay: NCI single dose (10 µM) SRB screen; type: cell-based, human; conditions: CNS cancer, 48 h
SNB-75 = assay: NCI single dose (10 µM) SRB screen; type: cell-based, human; conditions: CNS cancer, 48 h
U251 = assay: NCI single dose (10 µM) SRB screen; type: cell-based, human; conditions: CNS cancer, 48 h
MDA-MB-468 = assay: NCI single dose (10 µM) SRB screen; type: cell-based, human; conditions: breast cancer, 48 h
UACC-257 = assay: NCI single dose (10 µM) SRB screen; type: cell-based, human; conditions: melanoma, 48 h
MDA-MB-435 = assay: NCI single dose (10 µM) SRB screen; type: cell-based, human; conditions: melanoma, 48 h
M14 = assay: NCI single dose (10 µM) SRB screen; type: cell-based, human; conditions: melanoma, 48 h
SK-MEL-2 = assay: NCI single dose (10 µM) SRB screen; type: cell-based, human; conditions: melanoma, 48 h
UACC-62 = assay: NCI single dose (10 µM) SRB screen; type: cell-based, human; conditions: melanoma, 48 h
SF-295 = assay: NCI single dose (10 µM) SRB screen; type: cell-based, human; conditions: CNS cancer, 48 h
NCI-H322M = assay: NCI single dose (10 µM) SRB screen; type: cell-based; conditions: non-small cell lung cancer, 48 h
RPMI-8226 = assay: NCI single dose (10 µM) SRB screen; type: cell-based, human; conditions: leukaemia, 48 h
NCI/ADR-RES = assay: NCI single dose (10 µM) SRB screen; type: cell-based, human; conditions: ovarian cancer, 48 h
SNB-19 = assay: NCI single dose (10 µM) SRB screen; type: cell-based, human; conditions: CNS cancer, 48 h
CCRF-CEM = assay: NCI single dose (10 µM) SRB screen; type: cell-based, human; conditions: leukaemia, 48 h
HL-60(TB) = assay: NCI single dose (10 µM) SRB screen; type: cell-based, human; conditions: leukaemia, 48 h
MOLT-4 = assay: NCI single dose (10 µM) SRB screen; type: cell-based, human; conditions: leukaemia, 48 h
K-562 = assay: NCI single dose (10 µM) SRB screen; type: cell-based, human; conditions: leukaemia, 48 h
Pseudomonas aeruginosa = assay: Agar well diffusion method
786-0 = assay: NCI single dose (10 µM) SRB screen; type: cell-based, human; conditions: renal cancer, 48 h
UO-31 = assay: NCI single dose (10 µM) SRB screen; type: cell-based, human; conditions: renal cancer, 48 h
OVCAR-5 = assay: NCI single dose (10 µM) SRB screen; type: cell-based, human; conditions: ovarian cancer, 48 h
SK-OV-3 = assay: NCI single dose (10 µM) SRB screen; type: cell-based, human; conditions: ovarian cancer, 48 h
SN12C = assay: NCI single dose (10 µM) SRB screen; type: cell-based, human; conditions: renal cancer, 48 h
HT29 = assay: NCI single dose (10 µM) SRB screen; type: cell-based, human; conditions: colon cancer, 48 h
Staphylococcus aureus = assay: Agar well diffusion method
MDA-MB-231 = assay: NCI single dose (10 µM) SRB screen; type: cell-based, human; conditions: breast cancer, 48 h
COLO 205 = assay: NCI single dose (10 µM) SRB screen; type: cell-based, human; conditions: colon cancer, 48 h

COC(=O)C1=C(C)NC(C)=C(C(=O)OC)C1c1cccc(C#N)c1 [Compound 1a, Dimethyl 4-(3-cyanophenyl)-2,6-dimethyl-1,4-dihydropyridine-3,5-dicarboxylate]
GI% SF-268 (SF-268): – (Only GI% ≥ 10 are shown) | GI% SR (SR): – (Only GI% ≥ 10 are shown) | GI% A549/ATCC (A549/ATCC): – (Only GI% ≥ 10 are shown) | GI% HOP-92 (HOP-92): – (Only GI% ≥ 10 are shown) | GI% CAKI-1 (CAKI-1): – (Only GI% ≥ 10 are shown) | GI% DU-145 (DU-145): – (Only GI% ≥ 10 are shown) | GI% MALME-3M (MALME-3M): – (Only GI% ≥ 10 are shown) | GI% A498 (A498): – (Only GI% ≥ 10 are shown) | GI% NCI-H23 (NCI-H23): – (Only GI% ≥ 10 are shown) | GI% KM12 (KM12): – (Only GI% ≥ 10 are shown) | GI% T-47D (T-47D): – (Only GI% ≥ 10 are shown) | GI% NCI-H522 (NCI-H522): – (Only GI% ≥ 10 are shown) | zone of inhibition at 1000 µg/mL (Bacillus subtilis; Bacillus subtilis, 24 h, read-out: Diameter of inhibition zone, B. subtilis): 9 mm | % activity index, B. subtilis (Bacillus subtilis; relative to ciprofloxacin): 39.1% | GI% TK-10 (TK-10): – (Only GI% ≥ 10 are shown) | zone of inhibition at 1000 µg/mL (Escherichia coli; Escherichia coli, 24 h, read-out: Diameter of inhibition zone, E. coli): 8 mm | % activity index, E. coli (Escherichia coli; relative to ciprofloxacin): 30.8% | GI% ACHN (ACHN): – (Only GI% ≥ 10 are shown) | GI% HCT-15 (HCT-15): – (Only GI% ≥ 10 are shown) | GI% NCI-H460 (NCI-H460): – (Only GI% ≥ 10 are shown) | GI% IGROV1 (IGROV1): – (Only GI% ≥ 10 are shown) | GI% EKVX (EKVX): – (Only GI% ≥ 10 are shown) | GI% PC-3 (PC-3): – (Only GI% ≥ 10 are shown) | GI% HCT-116 (HCT-116): – (Only GI% ≥ 10 are shown) | GI% HCC-2998 (HCC-2998): – (Only GI% ≥ 10 are shown) | GI% HOP-62 (HOP-62): – (Only GI% ≥ 10 are shown) | GI% SK-MEL-28 (SK-MEL-28): – (Only GI% ≥ 10 are shown) | GI% SF-539 (SF-539): – (Only GI% ≥ 10 are shown) | GI% SNB-75 (SNB-75): 24% | GI% U251 (U251): – (Only GI% ≥ 10 are shown) | GI% MDA-MB-468 (MDA-MB-468): – (Only GI% ≥ 10 are shown) | GI% UACC-257 (UACC-257): – (Only GI% ≥ 10 are shown) | GI% MDA-MB-435 (MDA-MB-435): – (Only GI% ≥ 10 are shown) | GI% M14 (M14): – (Only GI% ≥ 10 are shown) | GI% SK-MEL-2 (SK-MEL-2): – (Only GI% ≥ 10 are shown) | GI% UACC-62 (UACC-62): – (Only GI% ≥ 10 are shown) | GI% SF-295 (SF-295): – (Only GI% ≥ 10 are shown) | GI% NCI-H322M (NCI-H322M): – (Only GI% ≥ 10 are shown) | GI% RPMI-8226 (RPMI-8226): – (Only GI% ≥ 10 are shown) | GI% NCI/ADR-RES (NCI/ADR-RES): – (Only GI% ≥ 10 are shown) | GI% SNB-19 (SNB-19): – (Only GI% ≥ 10 are shown) | GI% CCRF-CEM (CCRF-CEM): – (Only GI% ≥ 10 are shown) | GI% HL-60(TB) (HL-60(TB)): – (Only GI% ≥ 10 are shown) | GI% MOLT-4 (MOLT-4): – (Only GI% ≥ 10 are shown) | GI% K-562 (K-562): – (Only GI% ≥ 10 are shown) | zone of inhibition at 1000 µg/mL (Pseudomonas aeruginosa; Pseudomonas aeruginosa, 24 h, read-out: Diameter of inhibition zone, P. aeruginosa): 12 mm | % activity index, P. aeruginosa (Pseudomonas aeruginosa; relative to ciprofloxacin): 52.2% | GI% 786-0 (786-0): – (Only GI% ≥ 10 are shown) | GI% UO-31 (UO-31): – (Only GI% ≥ 10 are shown) | GI% OVCAR-5 (OVCAR-5): – (Only GI% ≥ 10 are shown) | GI% SK-OV-3 (SK-OV-3): – (Only GI% ≥ 10 are shown) | GI% SN12C (SN12C): – (Only GI% ≥ 10 are shown) | GI% HT29 (HT29): – (Only GI% ≥ 10 are shown) | zone of inhibition at 1000 µg/mL (Staphylococcus aureus; Staphylococcus aureus, 24 h, read-out: Diameter of inhibition zone, S. aureus): 13 mm | % activity index, S. aureus (Staphylococcus aureus; relative to ciprofloxacin): 54.2% | GI% MDA-MB-231 (MDA-MB-231): – (Only GI% ≥ 10 are shown) | GI% COLO 205 (COLO 205): – (Only GI% ≥ 10 are shown)
